In experiment [1] the test system is neutral endopeptidase. Nature of the experiment: Urinary atrial natriuretic peptide excretion rate in subjects with isolated systolic hypertension. The experiment is classed as in vivo, human. The following applies: once daily 80 mg, at 24 hours after dosing.
Experiment [2] has as its system subjects with isolated systolic hypertension. Briefly: Omapatrilat in subjects with isolated systolic hypertension: trough seated blood pressure, forced- and elective-dose titration versus placebo. It counts as in vivo, human. The conditions noted are these: for Δtrough seated diastolic blood pressure / Δtrough seated systolic blood pressure: week 9, change from baseline, trough 24±3 hours post dose; for percentage of normalized subjects (trough seated systolic blood pressure less than 140 mm Hg): week 9. The procedure:
Omapatrilat was studied in subjects with isolated systolic hypertension (seated systolic blood pressure 160-199 mm Hg and diastolic blood pressure less than 90 after 4 weeks of single-blind placebo lead-in). Both a forced-dose titration (at Week 1) and an elective-dose titration (at Week 9) design were used to compare the change from baseline, relative to placebo, in trough (24±3 hours post dose) seated systolic blood pressure after 9 weeks and 13 weeks of once-daily oral administration of 3 dose regimens of omapatrilat. Treatment regimens consisted of omapatrilat 10 mg lead-in maintained at 10 mg at week 1, electively titrated to 20 mg at week 9 for subjects with a seated systolic blood pressure greater than or equal to 140 mm Hg, or omapatrilat 20 mg lead-in maintained at 20 mg at week 1, electively titrated to 40 mg at week 9 for subjects with a seated systolic blood pressure greater than or equal to 140 mm Hg, or omapatrilat 20 mg lead-in increased to 40 mg at week 1, electively titrated to 80 mg at week 9 for subjects with a seated systolic blood pressure greater than or equal to 140 mm Hg. Placebo was mock titrated at weeks 1 and week 9.
429 subjects were randomized. The mean age was 67 years, and mean baseline blood pressure was 169/82 mm Hg. The primary efficacy objective was to compare the change from baseline, relative to placebo, in trough (24±3 hours post dose) seated systolic blood pressure after 9 weeks of once-daily oral administration of 3 dose regimens of omapatrilat.

Setting [3] is: omapatrilat 10/10 mg once-daily oral.
Where [4] appears, read: omapatrilat 20/20 mg once-daily oral.
Where [5] appears, read: omapatrilat 20/40 mg once-daily oral.

`O=C(N[C@H]1CCSC2CCC[C@@H](C(=O)O)N2C1=O)C(S)Cc1ccccc1` (relative stereo) [Omapatrilat, [4S-[4α(R*), 7α, 10aβ]]-octahydro-4-[(2-mercapto-1-oxo-3-phenylpropyl)amino]-5-oxo-7H-pyrido[2,1-b][1,3]thiazepine-7-carboxylic acid]: the “urinary atrial natriuretic peptide excretion rate” value in experiment [1] was “persistent elevation”. Also, the “systolic and diastolic blood pressure reductions at trough versus placebo regimen” value in experiment [2] (10/10/20 mg, 20/20/40 mg and 20/40/80 mg once-daily for 13 weeks, predominately elderly subjects) is “greater systolic blood pressure and diastolic blood pressure reductions at trough than a regimen of placebo”. Moreover, the “systolic blood pressure reductions versus placebo” value in experiment [2] (Week 13, after elective titration) is “Additional small reductions in systolic blood pressure versus placebo”. Also, the “Δtrough seated diastolic blood pressure” value in experiment [2] (setting [3]) is listed as −1.8; in experiment [2] (setting [4]), −2.6; in experiment [2] (setting [5]), −4.6. Moreover, the “Δtrough seated systolic blood pressure” value in experiment [2] (setting [3]) is given as −15.9; in experiment [2] (setting [4]), −23.1; in experiment [2] (setting [5]), −26.1. For the same compound, the entries for the “percentage of normalized subjects (trough seated systolic blood pressure less than 140 mm Hg)” value in experiment [2] (omapatrilat 10/10 mg), in experiment [2] (omapatrilat 20/20 mg) and in experiment [2] (omapatrilat 20/40 mg) were 28%, 51% and 47%, respectively. In addition, the “systolic and diastolic blood pressure reductions versus placebo regimen” value in experiment [2] (week 9, all 3 omapatrilat regimens) is “greater systolic and diastolic blood pressure reductions than the placebo regimen”.

These data come from US20020004500A1, “Vasopeptidase Inhibitors to treat isolated systolic hypertension” (priority 2000, published 2002).
